{
  "source": "ChEMBL document CHEMBL4387706",
  "about": "“Discovery of Novel Spiroindoline Derivatives as Selective Tankyrase Inhibitors” (J Med Chem, 2019)",
  "key": {"[1]": {"target": "Tankyrase 1/2 (Homo sapiens) (UniProt Q9H2K2+O95271)", "experiment": "Inhibition of TNKS/TNKS2 in human COLO320DM cells assessed as upregulation of AXIN2 expression at 0.1 uM measured after 16 hrs by Western blot analysis relative to G007-LK", "type": "cell-based"}, "Homo sapiens": {"species": "Homo sapiens", "experiment": "Effect on hippo signaling protein in human COLO320DM cells assessed as change in AMOTL2 expression at 0.033 to 1 uM measured after 48 hrs by RT-PCR analysis", "type": "cell-based"}, "COLO 320DM": {"test_system": "COLO 320DM", "experiment": "Antitumor activity against human COLO320DM cells xenografted in mouse assessed as tumor growth inhibition at 150 mg/kg, ip administered twice daily for 11 days relative to control", "type": "functional", "settings": "264 h, read-out: TGI"}, "[2]": {"experiment": "Toxicity in mouse xenografted with human COLO320DM cells assessed as body weight loss at 150 mg/kg, ip administered twice daily for 11 days", "type": "organism-based", "settings": "in vivo, 264 h"}, "[3]": {"experiment": "Toxicity in mouse xenografted with human COLO320DM cells assessed as body weight loss at 300 mg/kg, ip administered twice daily for 11 days", "type": "organism-based", "settings": "in vivo, 264 h"}, "[4]": {"target": "5-hydroxytryptamine receptor 1A (Homo sapiens) (UniProt P08908)", "sequence (P08908 whole entry)": "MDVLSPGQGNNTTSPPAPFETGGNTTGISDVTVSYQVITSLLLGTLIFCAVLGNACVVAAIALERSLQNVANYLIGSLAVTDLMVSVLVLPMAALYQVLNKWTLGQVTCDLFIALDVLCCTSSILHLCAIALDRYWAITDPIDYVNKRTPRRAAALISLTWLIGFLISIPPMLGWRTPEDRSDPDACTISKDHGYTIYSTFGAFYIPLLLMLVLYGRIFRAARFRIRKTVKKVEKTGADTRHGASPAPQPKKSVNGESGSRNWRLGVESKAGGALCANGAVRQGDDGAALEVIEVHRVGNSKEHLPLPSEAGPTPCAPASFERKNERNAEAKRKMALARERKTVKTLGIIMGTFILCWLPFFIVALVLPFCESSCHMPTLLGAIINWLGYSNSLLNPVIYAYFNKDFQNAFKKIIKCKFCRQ", "experiment": "Displacement of [3H]8-OH-DPAT from full-length recombinant human 5HT1A receptor expressed in CHOK1 cells at 10 uM measured after 60 mins by scintillation counting method relative to control", "type": "cell-based"}, "[5]": {"target": "5-hydroxytryptamine receptor 2A (Homo sapiens) (UniProt P28223)", "sequence (P28223 whole entry)": "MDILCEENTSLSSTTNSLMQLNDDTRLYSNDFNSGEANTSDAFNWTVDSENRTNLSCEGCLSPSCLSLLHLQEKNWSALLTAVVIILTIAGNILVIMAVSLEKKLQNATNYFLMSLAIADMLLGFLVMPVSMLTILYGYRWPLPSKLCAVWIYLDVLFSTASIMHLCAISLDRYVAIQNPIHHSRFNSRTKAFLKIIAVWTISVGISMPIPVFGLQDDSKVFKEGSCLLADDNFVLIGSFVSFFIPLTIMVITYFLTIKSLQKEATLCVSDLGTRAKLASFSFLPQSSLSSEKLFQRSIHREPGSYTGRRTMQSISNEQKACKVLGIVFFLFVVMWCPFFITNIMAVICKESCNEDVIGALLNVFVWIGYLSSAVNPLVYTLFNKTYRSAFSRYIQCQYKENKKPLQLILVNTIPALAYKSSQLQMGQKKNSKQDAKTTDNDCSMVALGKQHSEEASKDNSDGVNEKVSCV", "experiment": "Displacement of [3H]ketanserin from full-length recombinant human 5HT2A receptor expressed in CHOK1 cells at 10 uM measured after 60 mins by scintillation counting method relative to control", "type": "cell-based"}, "[6]": {"target": "Acetylcholinesterase (Homo sapiens) (UniProt P22303)", "sequence (P22303 whole entry)": "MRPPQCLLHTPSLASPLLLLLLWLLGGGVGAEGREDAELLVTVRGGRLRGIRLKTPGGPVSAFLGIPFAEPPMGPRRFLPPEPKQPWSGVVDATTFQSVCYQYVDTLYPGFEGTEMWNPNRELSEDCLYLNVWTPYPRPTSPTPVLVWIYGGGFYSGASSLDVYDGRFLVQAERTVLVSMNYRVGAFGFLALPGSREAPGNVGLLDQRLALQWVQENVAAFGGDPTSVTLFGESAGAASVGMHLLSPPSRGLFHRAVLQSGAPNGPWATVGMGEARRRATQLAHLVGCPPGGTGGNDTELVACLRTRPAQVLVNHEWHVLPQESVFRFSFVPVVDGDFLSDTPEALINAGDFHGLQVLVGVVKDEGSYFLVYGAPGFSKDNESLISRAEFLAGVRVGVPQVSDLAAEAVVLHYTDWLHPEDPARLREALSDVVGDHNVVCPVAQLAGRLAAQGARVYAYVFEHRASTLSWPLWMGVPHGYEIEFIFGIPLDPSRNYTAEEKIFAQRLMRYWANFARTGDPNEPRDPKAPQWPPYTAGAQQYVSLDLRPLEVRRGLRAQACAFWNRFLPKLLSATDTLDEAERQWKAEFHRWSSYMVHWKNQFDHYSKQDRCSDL", "experiment": "Inhibition of human recombinant full-length ACES expressed in HEK293 cells at 10 uM using acetylthiocholine iodide as substrate preincubated for 15 mins followed by substrate addition and measured after 20 mins by DTNB reagent based spectrophotometric method relative to control"}, "[7]": {"target": "Androgen receptor (Homo sapiens) (UniProt P10275)", "experiment": "Displacement of [3H]Methyltrienolone from human LNCAP cells-derived androgen receptor at 10 uM measured after 20 hrs by scintillation counting method relative to control", "type": "cell-based"}, "[8]": {"target": "Cannabinoid receptor 2 (Homo sapiens) (UniProt P34972)", "sequence (P34972 whole entry)": "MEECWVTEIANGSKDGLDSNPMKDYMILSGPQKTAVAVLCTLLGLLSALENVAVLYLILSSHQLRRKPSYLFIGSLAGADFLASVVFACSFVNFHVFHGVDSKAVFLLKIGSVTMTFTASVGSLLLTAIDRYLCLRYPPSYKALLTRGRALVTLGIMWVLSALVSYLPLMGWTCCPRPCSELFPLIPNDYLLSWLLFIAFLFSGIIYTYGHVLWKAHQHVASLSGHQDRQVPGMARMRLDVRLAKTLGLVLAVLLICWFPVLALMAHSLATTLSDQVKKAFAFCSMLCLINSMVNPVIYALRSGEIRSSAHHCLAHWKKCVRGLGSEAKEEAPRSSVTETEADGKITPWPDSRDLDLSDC", "experiment": "Displacement of [3H]WIN55212-2 from full-length recombinant human CB2 receptor expressed in human Chem1 cells at 10 uM measured after 90 mins by scintillation counting method relative to control", "type": "cell-based"}, "[9]": {"target": "Delta-type opioid receptor (Homo sapiens) (UniProt P41143)", "sequence (P41143 whole entry)": "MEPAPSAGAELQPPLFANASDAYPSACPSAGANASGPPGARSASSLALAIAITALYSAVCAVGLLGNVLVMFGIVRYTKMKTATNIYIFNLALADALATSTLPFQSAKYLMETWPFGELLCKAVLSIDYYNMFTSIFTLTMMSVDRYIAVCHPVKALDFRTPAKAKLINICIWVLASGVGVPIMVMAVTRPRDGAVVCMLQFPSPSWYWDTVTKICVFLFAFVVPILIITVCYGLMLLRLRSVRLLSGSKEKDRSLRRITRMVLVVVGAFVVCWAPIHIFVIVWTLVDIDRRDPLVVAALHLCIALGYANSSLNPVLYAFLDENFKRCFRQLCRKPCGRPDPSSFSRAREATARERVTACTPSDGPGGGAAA", "experiment": "Displacement of [3H]naltrindole from full-length recombinant human DOR expressed in HEK293 cells at 10 uM measured after 60 mins by scintillation counting method relative to control", "type": "cell-based"}, "[10]": {"target": "Endothelin-1 receptor (Homo sapiens) (UniProt P25101)", "sequence (P25101 whole entry)": "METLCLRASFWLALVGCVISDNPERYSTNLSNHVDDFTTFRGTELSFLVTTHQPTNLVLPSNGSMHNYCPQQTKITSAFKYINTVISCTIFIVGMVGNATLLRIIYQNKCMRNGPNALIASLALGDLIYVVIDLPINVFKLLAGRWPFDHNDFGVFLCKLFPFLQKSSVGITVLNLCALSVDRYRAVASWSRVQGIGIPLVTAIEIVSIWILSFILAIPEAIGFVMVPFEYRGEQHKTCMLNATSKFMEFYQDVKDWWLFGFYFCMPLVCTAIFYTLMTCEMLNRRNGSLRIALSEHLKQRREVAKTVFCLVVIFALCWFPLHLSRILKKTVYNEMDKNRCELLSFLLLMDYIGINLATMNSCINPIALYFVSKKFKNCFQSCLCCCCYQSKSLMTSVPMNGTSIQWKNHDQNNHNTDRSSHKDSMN", "experiment": "Displacement of [125I]Endothelin1 from full-length recombinant human ETA receptor expressed in CHOK1 cells at 10 uM measured after 120 mins by scintillation counting method relative to control", "type": "cell-based"}, "[11]": {"target": "Glutamate NMDA receptor (Rattus norvegicus) (UniProt P35439+Q00959+Q00960+Q00961+Q62645+Q8VHN2+Q9R1M7)", "experiment": "Displacement of [3H]CGP-39653 from NMDA receptor in Wistar rat cerebral cortex at 10 uM measured after 20 mins by scintillation counting method relative to control"}, "[12]": {"target": "Histamine H2 receptor (Homo sapiens) (UniProt P25021)", "sequence (P25021 whole entry)": "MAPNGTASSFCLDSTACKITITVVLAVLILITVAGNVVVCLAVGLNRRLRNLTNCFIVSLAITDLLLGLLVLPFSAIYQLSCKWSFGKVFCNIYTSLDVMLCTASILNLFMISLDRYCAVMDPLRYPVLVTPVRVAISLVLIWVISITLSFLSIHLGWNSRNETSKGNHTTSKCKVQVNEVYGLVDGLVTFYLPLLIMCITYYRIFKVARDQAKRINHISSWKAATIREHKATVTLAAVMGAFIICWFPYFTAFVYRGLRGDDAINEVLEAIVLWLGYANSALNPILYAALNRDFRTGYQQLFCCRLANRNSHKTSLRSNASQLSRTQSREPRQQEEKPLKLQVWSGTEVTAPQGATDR", "experiment": "Displacement of [125I]aminopotentidine from full-length recombinant human H2 receptor expressed in CHOK1 cells at 10 uM measured after 120 mins by scintillation counting method relative to control", "type": "cell-based"}, "Rattus norvegicus": {"species": "Rattus norvegicus", "experiment": "Displacement of [125I]a-dendrotoxin from voltage-gated potassium channel in Wistar rat cerebral cortex at 10 uM measured after 60 mins by scintillation counting method relative to control"}, "[13]": {"target": "Tyrosine-protein kinase Lck (Homo sapiens) (UniProt P06239)", "sequence (P06239 2-509 limits assumed)": "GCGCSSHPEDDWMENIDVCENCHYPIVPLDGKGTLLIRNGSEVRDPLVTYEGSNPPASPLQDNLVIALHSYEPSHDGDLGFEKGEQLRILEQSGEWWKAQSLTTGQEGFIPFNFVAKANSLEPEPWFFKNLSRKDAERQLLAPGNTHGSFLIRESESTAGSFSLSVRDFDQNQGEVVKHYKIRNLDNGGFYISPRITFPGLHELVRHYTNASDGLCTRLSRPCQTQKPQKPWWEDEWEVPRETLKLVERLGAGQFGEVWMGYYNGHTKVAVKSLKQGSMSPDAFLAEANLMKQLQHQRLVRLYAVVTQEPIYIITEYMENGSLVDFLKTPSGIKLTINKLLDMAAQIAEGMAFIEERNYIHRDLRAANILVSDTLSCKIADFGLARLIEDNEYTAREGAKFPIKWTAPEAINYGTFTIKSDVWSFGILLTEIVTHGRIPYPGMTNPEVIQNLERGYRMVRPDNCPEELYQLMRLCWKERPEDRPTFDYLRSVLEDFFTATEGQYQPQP", "experiment": "Inhibition of full-length recombinant human LCK expressed in insect cells at 10 uM using poly(Glu:Tyr) as substrate preincubated for 15 mins followed by substrate addition and measured after 30 mins in presence of [gamma32P]ATP by scintillation counting method relative to control"}, "MAOA": {"target": "MAOA (Homo sapiens, UniProt P21397)", "sequence (P21397 whole entry)": "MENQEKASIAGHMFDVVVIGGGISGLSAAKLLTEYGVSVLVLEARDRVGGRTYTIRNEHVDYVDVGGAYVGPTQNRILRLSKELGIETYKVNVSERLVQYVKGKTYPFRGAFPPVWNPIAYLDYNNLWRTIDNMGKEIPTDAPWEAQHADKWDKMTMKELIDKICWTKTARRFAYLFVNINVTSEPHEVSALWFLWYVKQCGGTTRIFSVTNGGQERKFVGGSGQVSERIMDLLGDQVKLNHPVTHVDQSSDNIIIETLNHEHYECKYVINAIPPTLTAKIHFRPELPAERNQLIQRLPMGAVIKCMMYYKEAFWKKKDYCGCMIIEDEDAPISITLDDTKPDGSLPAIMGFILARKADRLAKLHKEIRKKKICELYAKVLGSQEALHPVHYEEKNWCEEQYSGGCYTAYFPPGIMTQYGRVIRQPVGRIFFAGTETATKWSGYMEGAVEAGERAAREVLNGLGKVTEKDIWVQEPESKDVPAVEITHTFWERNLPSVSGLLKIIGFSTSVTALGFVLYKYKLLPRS", "experiment": "Inhibition of full-length recombinant human MAOA expressed in insect cells at 10 uM using kynuramine as substrate preincubated for 15 mins followed by substrate addition and measured after 60 mins by spectrofluorimetric method relative to control", "settings": "probe kynuramine"}, "[14]": {"target": "Neuronal acetylcholine receptor; alpha4/beta2 (Homo sapiens) (UniProt P17787+P43681)", "experiment": "Displacement of [3H]cytisine from full-length recombinant human alpha4/beta2 nACHR expressed in human SH-SY5Y cells at 10 uM measured after 120 mins by scintillation counting method relative to control", "type": "cell-based"}, "[15]": {"target": "GABA-A receptor; anion channel (Rattus norvegicus) (UniProt O09028+P15431+P18506+P18508+P19969+P20236+P23574+P23576+P28471+P28473+P30191+P62813+P63079+P63138+Q91ZM7+Q9ES14)", "experiment": "Displacement of [3H]flunitrazepam from GABAA receptor in Wistar rat brain at 10 uM measured after 60 mins by scintillation counting method relative to control", "type": "tissue-based"}, "[16]": {"target": "Sodium-dependent serotonin transporter (Homo sapiens) (UniProt P31645)", "sequence (P31645 whole entry, looked up)": "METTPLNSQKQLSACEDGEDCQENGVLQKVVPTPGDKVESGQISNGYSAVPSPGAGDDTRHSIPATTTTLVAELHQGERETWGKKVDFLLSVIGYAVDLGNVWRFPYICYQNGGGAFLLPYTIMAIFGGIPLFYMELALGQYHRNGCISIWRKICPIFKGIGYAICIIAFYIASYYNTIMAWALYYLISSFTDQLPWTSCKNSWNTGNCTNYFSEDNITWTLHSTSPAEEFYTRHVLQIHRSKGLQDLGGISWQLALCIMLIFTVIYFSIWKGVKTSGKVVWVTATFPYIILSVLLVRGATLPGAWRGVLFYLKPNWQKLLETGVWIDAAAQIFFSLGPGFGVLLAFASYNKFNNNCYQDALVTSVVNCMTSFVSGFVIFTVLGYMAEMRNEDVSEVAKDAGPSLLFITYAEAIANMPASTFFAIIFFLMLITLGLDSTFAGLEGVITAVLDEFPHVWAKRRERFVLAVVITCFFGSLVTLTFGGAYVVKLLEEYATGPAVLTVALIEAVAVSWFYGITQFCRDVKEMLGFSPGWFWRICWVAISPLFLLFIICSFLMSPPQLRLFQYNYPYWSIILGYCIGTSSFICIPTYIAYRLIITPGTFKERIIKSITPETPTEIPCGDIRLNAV", "experiment": "Displacement of [3H]paroxetine from full-length recombinant human SET receptor expressed in HEK293 cells at 10 uM measured after 60 mins by scintillation counting method relative to control", "type": "cell-based"}},
  "note": "Activity calls are given as the source filed them. The calls are words filed in the database; no cut-off is given here.",
  "data": [
    {"smiles": "O=c1[nH]c(N2CCC3(CC2)CN(CCO)c2cc(F)cc(F)c23)nc2c1CCCC2", "values": [
      {"measurement": "fold change (FC)", "setting": "[1]", "value": 4.42},
      {"measurement": "Activity", "setting": "Homo sapiens", "value": "inactive"},
      {"measurement": "inhibition in vivo at 150 mg/kg", "setting": "COLO 320DM", "value": 47.2, "unit": "%"},
      {"measurement": "Activity", "setting": "[2]", "value": "Non-Toxic"},
      {"measurement": "Activity", "setting": "[3]", "value": "Toxic"},
      {"measurement": "inhibition", "setting": "[4]", "value": "> 20", "unit": "%"},
      {"measurement": "inhibition", "setting": "[5]", "value": "> 20", "unit": "%"},
      {"measurement": "inhibition", "setting": "[6]", "value": "> 20", "unit": "%"},
      {"measurement": "inhibition", "setting": "[7]", "value": "> 20", "unit": "%"},
      {"measurement": "inhibition", "setting": "[8]", "value": "> 20", "unit": "%"},
      {"measurement": "inhibition", "setting": "[9]", "value": "> 20", "unit": "%"},
      {"measurement": "inhibition", "setting": "[10]", "value": "> 20", "unit": "%"},
      {"measurement": "inhibition", "setting": "[11]", "value": "> 20", "unit": "%"},
      {"measurement": "inhibition", "setting": "[12]", "value": "> 20", "unit": "%"},
      {"measurement": "inhibition", "setting": "Rattus norvegicus", "value": "> 20", "unit": "%"},
      {"measurement": "inhibition", "setting": "[13]", "value": "> 20", "unit": "%"},
      {"measurement": "inhibition at 1 h, 10 µM", "setting": "MAOA", "value": "> 20", "unit": "%"},
      {"measurement": "inhibition", "setting": "[14]", "value": "> 20", "unit": "%"},
      {"measurement": "inhibition", "setting": "[15]", "value": "> 20", "unit": "%"},
      {"measurement": "inhibition", "setting": "[16]", "value": "> 20", "unit": "%"}
    ]}
  ]
}
